{"source": "PubChem BioAssay AID248", "about": "(DTP/NCI, 2004)", "tested_on": "L1210 leukemia ip in BDF1 mice, survival T/C", "assay": "NCI In Vivo Anticancer Drug Screen. Data for tumor model L1210 Leukemia (intraperitoneal) in B6D2F1 (BDF1) mice", "details": "endpoint: mean survival time, higher = longer survival", "summary_of_the_method": "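Each compound was tested against a transplantable tumor grown in mice. The endpoint was survival, with treated animals benchmarked against vehicle controls as a simple ratio.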", "note": "Several values for one entry are separate records, joined by “and”; a condition that tells them apart may be missing. Equal values may be shown once. Toxic doses and inconclusive results are not listed."}
{"smiles": "CC(CNC(=O)CCBr)NC(=O)CCBr", "note": "(stereo not given)", "values": [{"measurement": "T/C", "setting": "dose: 50.0 mg/kg/injection, schedule: Q01DX Z (ip), vehicle: carboxymethylcellulose (CMC)", "value": "103 % of control"}, {"measurement": "T/C", "setting": "dose: 170.0 mg/kg/injection, schedule: Q01DX Z (ip), vehicle: carboxymethylcellulose (CMC)", "value": "100 % of control"}, {"measurement": "T/C", "setting": "dose: 200.0 mg/kg/injection, schedule: Q01DX009 (ip), vehicle: saline", "value": "153 % of control"}, {"measurement": "T/C", "setting": "dose: 400.0 mg/kg/injection, schedule: Q01DX009 (ip), vehicle: saline", "value": "178 % of control"}]}
{"smiles": "COc1ccc2c(O)c(Cl)c(=O)oc2c1", "values": [{"measurement": "T/C", "setting": "dose: 100.0 mg/kg/injection, schedule: Q04DX003 (ip), vehicle: saline", "value": "91 % of control"}, {"measurement": "T/C", "setting": "dose: 200.0 mg/kg/injection, schedule: Q04DX003 (ip), vehicle: saline", "value": "91 % of control"}, {"measurement": "T/C", "setting": "dose: 400.0 mg/kg/injection, schedule: Q04DX003 (ip), vehicle: saline", "value": "94 % of control"}]}
{"smiles": "CCC[CH2][Pb]([Cl])([CH2]CCC)[CH2]CCC", "values": [{"measurement": "T/C", "setting": "dose: 6.25 mg/kg/injection, schedule: Q01DX009 (ip), vehicle: saline with Tween-80", "value": "90 % of control"}]}
{"smiles": "C[C@@H]1C[C@@]2(C)[C@@H](CC[C@@H]3[C@@H]2CC[C@]2(C)OC(=O)CC[C@@H]32)CC1=O", "values": [{"measurement": "T/C", "setting": "dose: 50.0 mg/kg/injection, schedule: Q01DX009 (ip), vehicle: Klucel (hydroxypropylcellulose) (HPC)", "value": "95 % of control"}, {"measurement": "T/C", "setting": "dose: 100.0 mg/kg/injection, schedule: Q01DX009 (ip), vehicle: Klucel (hydroxypropylcellulose) (HPC)", "value": "97 % of control"}, {"measurement": "T/C", "setting": "dose: 100.0 mg/kg/injection, schedule: Q04DX003 (ip), vehicle: other", "value": "98 % of control"}, {"measurement": "T/C", "setting": "dose: 200.0 mg/kg/injection, schedule: Q01DX009 (ip), vehicle: Klucel (hydroxypropylcellulose) (HPC)", "value": "100 % of control"}, {"measurement": "T/C", "setting": "dose: 200.0 mg/kg/injection, schedule: Q04DX003 (ip), vehicle: other", "value": "101 % of control"}]}
{"smiles": "COc1cc2c3c(c1)/C(=N\\N)CCN3CCC2", "values": [{"measurement": "T/C", "setting": "dose: 12.5 mg/kg/injection, schedule: Q01DX009 (ip), vehicle: saline with Tween-80", "value": "90 % of control"}, {"measurement": "T/C", "setting": "dose: 25.0 mg/kg/injection, schedule: Q01DX009 (ip), vehicle: saline with Tween-80", "value": "94 % of control"}, {"measurement": "T/C", "setting": "dose: 50.0 mg/kg/injection, schedule: Q01DX009 (ip), vehicle: saline with Tween-80", "value": "92 % of control"}, {"measurement": "T/C", "setting": "dose: 100.0 mg/kg/injection, schedule: Q04DX003 (ip), vehicle: saline with Tween-80", "value": "92 % of control"}, {"measurement": "T/C", "setting": "dose: 200.0 mg/kg/injection, schedule: Q01DX009 (ip), vehicle: saline with Tween-80", "value": "99 % of control"}, {"measurement": "T/C", "setting": "dose: 200.0 mg/kg/injection, schedule: Q04DX003 (ip), vehicle: saline with Tween-80", "value": "103 % of control"}]}
{"smiles": "O=C1CN(CCN2CC(=O)NC(=O)C2)CC(=O)N1", "values": [{"measurement": "T/C", "setting": "dose: 6.25 mg/kg/injection, schedule: Q03HX008 (ip), vehicle: steriod suspending solution", "value": "112 % of control"}, {"measurement": "T/C", "setting": "dose: 10.8 mg/kg/injection, schedule: Q01DX009 (ip), vehicle: steriod suspending solution", "value": "103 % of control"}, {"measurement": "T/C", "setting": "dose: 12.5 mg/kg/injection, schedule: Q01DX009 (ip), vehicle: steriod suspending solution", "value": "154 % of control"}, {"measurement": "T/C", "setting": "dose: 12.5 mg/kg/injection, schedule: Q01DX009 (oral), vehicle: steriod suspending solution", "value": "123 % of control"}, {"measurement": "T/C", "setting": "dose: 12.5 mg/kg/injection, schedule: Q01DX009 (sc), vehicle: steriod suspending solution", "value": "116 % of control"}, {"measurement": "T/C", "setting": "dose: 12.5 mg/kg/injection, schedule: Q03HX024 (ip), vehicle: steriod suspending solution", "value": "177 % of control"}, {"measurement": "T/C", "setting": "dose: 12.5 mg/kg/injection, schedule: Q03HX032 (ip), vehicle: other", "value": "156 % of control and 167 % of control"}, {"measurement": "T/C", "setting": "dose: 14.0 mg/kg/injection, schedule: Q01DX009 (ip), vehicle: steriod suspending solution", "value": "108 % of control"}, {"measurement": "T/C", "setting": "dose: 18.7 mg/kg/injection, schedule: Q03HX032 (ip), vehicle: other", "value": "214 % of control and 216 % of control"}, {"measurement": "T/C", "setting": "dose: 23.0 mg/kg/injection, schedule: Q01DX009 (ip), vehicle: steriod suspending solution", "value": "119 % of control"}, {"measurement": "T/C", "setting": "dose: 25.0 mg/kg/injection, schedule: Q01DX009 (oral), vehicle: steriod suspending solution", "value": "116 % of control"}, {"measurement": "T/C", "setting": "dose: 25.0 mg/kg/injection, schedule: Q01DX Z (ip), vehicle: steriod suspending solution", "value": "150 % of control"}, {"measurement": "T/C", "setting": "dose: 25.0 mg/kg/injection, schedule: Q03HX024 (ip), vehicle: steriod suspending solution", "value": "153 % of control"}, {"measurement": "T/C", "setting": "dose: 39.0 mg/kg/injection, schedule: Q01DX001 (ip), vehicle: steriod suspending solution", "value": "109 % of control"}, {"measurement": "T/C", "setting": "dose: 39.0 mg/kg/injection, schedule: Q01DX009 (ip), vehicle: steriod suspending solution", "value": "152 % of control"}, {"measurement": "T/C", "setting": "dose: 50.0 mg/kg/injection, schedule: Q01DX001 (ip), vehicle: steriod suspending solution", "value": "107 % of control"}, {"measurement": "T/C", "setting": "dose: 50.0 mg/kg/injection, schedule: Q01DX009 (ip), vehicle: steriod suspending solution", "value": "212 % of control"}, {"measurement": "T/C", "setting": "dose: 50.0 mg/kg/injection, schedule: Q01DX009 (oral), vehicle: steriod suspending solution", "value": "113 % of control"}, {"measurement": "T/C", "setting": "dose: 50.0 mg/kg/injection, schedule: Q01DX009 (sc), vehicle: steriod suspending solution", "value": "154 % of control"}, {"measurement": "T/C", "setting": "dose: 50.0 mg/kg/injection, schedule: Q01DX Z (ip), vehicle: steriod suspending solution", "value": "164 % of control"}, {"measurement": "T/C", "setting": "dose: 50.0 mg/kg/injection, schedule: Q03HX008 (ip), vehicle: steriod suspending solution", "value": "164 % of control"}, {"measurement": "T/C", "setting": "dose: 50.0 mg/kg/injection, schedule: Q03HX024 (ip), vehicle: steriod suspending solution", "value": "165 % of control"}, {"measurement": "T/C", "setting": "dose: 65.0 mg/kg/injection, schedule: Q01DX001 (ip), vehicle: steriod suspending solution", "value": "118 % of control"}, {"measurement": "T/C", "setting": "dose: 65.0 mg/kg/injection, schedule: Q01DX009 (ip), vehicle: steriod suspending solution", "value": "176 % of control"}, {"measurement": "T/C", "setting": "dose: 100.0 mg/kg/injection, schedule: Q01DX001 (ip), vehicle: steriod suspending solution", "value": "112 % of control"}, {"measurement": "T/C", "setting": "dose: 100.0 mg/kg/injection, schedule: Q01DX009 (oral), vehicle: steriod suspending solution", "value": "121 % of control"}, {"measurement": "T/C", "setting": "dose: 100.0 mg/kg/injection, schedule: Q04DX003 (ip), vehicle: steriod suspending solution", "value": "154 % of control"}, {"measurement": "T/C", "setting": "dose: 200.0 mg/kg/injection, schedule: Q01DX001 (ip), vehicle: steriod suspending solution", "value": "166 % of control"}, {"measurement": "T/C", "setting": "dose: 200.0 mg/kg/injection, schedule: Q04DX003 (ip), vehicle: steriod suspending solution", "value": "189 % of control"}, {"measurement": "T/C", "setting": "dose: 400.0 mg/kg/injection, schedule: Q01DX001 (ip), vehicle: steriod suspending solution", "value": "119 % of control"}, {"measurement": "T/C", "setting": "dose: 400.0 mg/kg/injection, schedule: Q04DX003 (ip), vehicle: steriod suspending solution", "value": "162 % of control"}]}
